Experiments:
A498 = assay: Growth inhibition of human A498 cells at 10 uM incubated for 48 hrs by sulforhodamine B assay relative to control; assay type: functional; settings: A498, 48 h, read-out: GI
[1] = biological target: Serine/threonine-protein kinase B-raf (Homo sapiens, UniProt P15056); assay: Inhibition of human wild type BRAF by Kinase-Glo luminescence assay
SN12C = assay: Growth inhibition of human SN12C cells at 10 uM incubated for 48 hrs by sulforhodamine B assay relative to control; assay type: functional; settings: read-out: GI
DU-145 = assay: Growth inhibition of human DU145 cells at 10 uM incubated for 48 hrs by sulforhodamine B assay relative to control; assay type: functional; settings: DU-145, 48 h, read-out: GI
NCI-H23 = assay: Growth inhibition of human NCI-H23 cells at 10 uM incubated for 48 hrs by sulforhodamine B assay relative to control; assay type: functional; settings: NCI-H23, 48 h, read-out: GI
T47D [2] = assay: Growth inhibition of human T47D cells at 10 uM incubated for 48 hrs by sulforhodamine B assay relative to control; assay type: functional; settings: read-out: GI
SW-620 = assay: Growth inhibition of human SW620 cells at 10 uM incubated for 48 hrs by sulforhodamine B assay relative to control; assay type: functional; settings: SW-620, 48 h, read-out: GI
IGROV-1 = assay: Growth inhibition of human IGROV1 cells at 10 uM incubated for 48 hrs by sulforhodamine B assay relative to control; assay type: functional; settings: IGROV-1, 48 h, read-out: GI
HT-29 = assay: Growth inhibition of human HT-29 cells at 10 uM incubated for 48 hrs by sulforhodamine B assay relative to control; assay type: functional; settings: HT-29, 48 h, read-out: GI
ACHN = assay: Growth inhibition of human ACHN cells at 10 uM incubated for 48 hrs by sulforhodamine B assay relative to control; assay type: functional; settings: read-out: GI
MCF7 [3] = assay: Cytotoxicity against human MCF7 cells expressing VEGFR2 and wild type BRAF measured after 48 hrs by sulforhodamine B assay; assay type: functional, cell-based; settings: MCF7, 48 h
HOP-62 = assay: Growth inhibition of human HOP62 cells at 10 uM incubated for 48 hrs by sulforhodamine B assay relative to control; assay type: functional; settings: HOP-62, 48 h, read-out: GI
Malme-3M = assay: Growth inhibition of human MALME-3M cells at 10 uM incubated for 48 hrs by sulforhodamine B assay relative to control; assay type: functional; settings: read-out: GI
SK-OV-3 = assay: Growth inhibition of human SKOV3 cells at 10 uM incubated for 48 hrs by sulforhodamine B assay relative to control; assay type: functional; settings: SK-OV-3, 48 h, read-out: GI
UACC-62 = assay: Growth inhibition of human UACC62 cells at 10 uM incubated for 48 hrs by sulforhodamine B assay relative to control; assay type: functional; settings: UACC-62, 48 h, read-out: GI
COLO 205 = assay: Growth inhibition of human COLO205 cells at 10 uM incubated for 48 hrs by sulforhodamine B assay relative to control; assay type: functional; settings: COLO 205, 48 h, read-out: GI
UO-31 = assay: Growth inhibition of human UO31 cells at 10 uM incubated for 48 hrs by sulforhodamine B assay relative to control; assay type: functional; settings: UO-31, 48 h, read-out: GI
K562 = assay: Growth inhibition of human K562 cells at 10 uM incubated for 48 hrs by sulforhodamine B assay relative to control; assay type: functional; settings: K562, 48 h, read-out: GI
SF-539 = assay: Growth inhibition of human SF539 cells at 10 uM incubated for 48 hrs by sulforhodamine B assay relative to control; assay type: functional; settings: SF-539, 48 h, read-out: GI
CAKI-1 = assay: Growth inhibition of human Caki1 cells at 10 uM incubated for 48 hrs by sulforhodamine B assay relative to control; assay type: functional; settings: CAKI-1, 48 h, read-out: GI
PC-3 = assay: Growth inhibition of human PC3 cells at 10 uM incubated for 48 hrs by sulforhodamine B assay relative to control; assay type: functional; settings: PC-3, 48 h, read-out: GI
CCRF-CEM = assay: Growth inhibition of human CCRF-CEM cells at 10 uM incubated for 48 hrs by sulforhodamine B assay relative to control; assay type: functional; settings: read-out: GI
NCI-H226 = assay: Growth inhibition of human NCI-H226 cells at 10 uM incubated for 48 hrs by sulforhodamine B assay relative to control; assay type: functional; settings: NCI-H226, 48 h, read-out: GI
[4] = biological target: Vascular endothelial growth factor receptor 2 (Homo sapiens, UniProt P35968); assay: Inhibition of human N-terminal GST tagged VEGFR-2 expressed in baculovirus infected Sf9 cells using poly (Glu,Tyr) 4:1 as substrate in presence of ATP by Kinase-Glo luminescence assay
Vascular endothelial growth factor receptor 2, sequence (P35968 whole entry): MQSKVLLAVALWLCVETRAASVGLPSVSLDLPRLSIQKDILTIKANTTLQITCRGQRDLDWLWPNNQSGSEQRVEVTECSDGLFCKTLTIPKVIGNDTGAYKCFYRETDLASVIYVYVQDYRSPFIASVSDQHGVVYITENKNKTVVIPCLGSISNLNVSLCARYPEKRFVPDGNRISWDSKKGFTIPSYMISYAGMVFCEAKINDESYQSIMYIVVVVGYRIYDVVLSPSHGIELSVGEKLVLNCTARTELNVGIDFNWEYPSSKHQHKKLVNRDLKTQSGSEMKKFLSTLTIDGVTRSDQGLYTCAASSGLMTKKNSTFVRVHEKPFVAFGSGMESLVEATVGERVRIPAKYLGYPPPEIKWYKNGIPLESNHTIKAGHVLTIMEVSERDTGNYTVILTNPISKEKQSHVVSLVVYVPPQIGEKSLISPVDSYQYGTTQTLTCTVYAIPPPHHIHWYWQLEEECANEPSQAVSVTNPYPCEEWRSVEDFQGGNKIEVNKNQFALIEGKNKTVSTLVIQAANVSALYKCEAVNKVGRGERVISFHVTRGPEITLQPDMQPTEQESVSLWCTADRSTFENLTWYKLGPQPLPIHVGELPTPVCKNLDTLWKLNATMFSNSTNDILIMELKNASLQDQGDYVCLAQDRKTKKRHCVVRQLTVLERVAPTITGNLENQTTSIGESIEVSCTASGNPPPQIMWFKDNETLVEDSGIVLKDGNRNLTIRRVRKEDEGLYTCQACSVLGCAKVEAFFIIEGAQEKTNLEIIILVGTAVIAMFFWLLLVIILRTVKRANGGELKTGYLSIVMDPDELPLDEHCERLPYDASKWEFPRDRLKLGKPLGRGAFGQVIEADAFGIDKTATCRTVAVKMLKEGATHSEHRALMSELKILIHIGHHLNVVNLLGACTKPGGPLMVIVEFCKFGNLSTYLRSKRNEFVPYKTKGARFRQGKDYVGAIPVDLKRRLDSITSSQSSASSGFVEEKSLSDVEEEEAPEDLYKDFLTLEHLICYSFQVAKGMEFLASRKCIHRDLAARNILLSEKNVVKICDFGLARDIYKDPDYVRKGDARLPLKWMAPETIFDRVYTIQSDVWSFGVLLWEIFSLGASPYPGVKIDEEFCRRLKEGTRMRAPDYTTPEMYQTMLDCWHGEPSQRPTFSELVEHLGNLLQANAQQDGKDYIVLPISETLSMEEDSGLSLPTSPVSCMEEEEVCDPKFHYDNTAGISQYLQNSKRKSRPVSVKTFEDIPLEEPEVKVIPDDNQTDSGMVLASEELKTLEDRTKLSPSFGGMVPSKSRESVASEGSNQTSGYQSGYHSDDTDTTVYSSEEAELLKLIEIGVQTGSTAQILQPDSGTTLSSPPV

MDA-MB-231 = assay: Growth inhibition of human MDA-MB-231 cells at 10 uM incubated for 48 hrs by sulforhodamine B assay relative to control; assay type: functional; settings: MDA-MB-231, 48 h, read-out: GI
NCI-H522 = assay: Growth inhibition of human NCI-H522 cells at 10 uM incubated for 48 hrs by sulforhodamine B assay relative to control; assay type: functional; settings: NCI-H522, 48 h, read-out: GI
HCT-116 = assay: Growth inhibition of human HCT116 cells at 10 uM incubated for 48 hrs by sulforhodamine B assay relative to control; assay type: functional; settings: HCT-116, 48 h, read-out: GI
MDA-MB-468 = assay: Growth inhibition of human MDA-MB-468 cells at 10 uM incubated for 48 hrs by sulforhodamine B assay relative to control; assay type: functional; settings: MDA-MB-468, 48 h, read-out: GI
HCT-15 = assay: Growth inhibition of human HCT15 cells at 10 uM incubated for 48 hrs by sulforhodamine B assay relative to control; assay type: functional; settings: HCT-15, 48 h, read-out: GI
HOP-92 = assay: Growth inhibition of human HOP92 cells at 10 uM incubated for 48 hrs by sulforhodamine B assay relative to control; assay type: functional; settings: HOP-92, 48 h, read-out: GI
A549 = assay: Growth inhibition of human A549/ATCC cells at 10 uM incubated for 48 hrs by sulforhodamine B assay relative to control; assay type: functional; settings: A549, 48 h, read-out: GI
KM12 = assay: Growth inhibition of human KM12 cells at 10 uM incubated for 48 hrs by sulforhodamine B assay relative to control; assay type: functional; settings: KM12, 48 h, read-out: GI
RPMI-8226 = assay: Growth inhibition of human RPMI8226 cells at 10 uM incubated for 48 hrs by sulforhodamine B assay relative to control; assay type: functional; settings: RPMI-8226, 48 h, read-out: GI
SR = assay: Growth inhibition of human SR cells at 10 uM incubated for 48 hrs by sulforhodamine B assay relative to control; assay type: functional; settings: read-out: GI
MCF7 [5] = assay: Inhibition of VEGFR2 level in human MCF7 cells at 10 uM measured after 48 hrs by ELISA relative to control; assay type: functional; settings: MCF7, 48 h
EKVX = assay: Growth inhibition of human EKVX cells at 10 uM incubated for 48 hrs by sulforhodamine B assay relative to control; assay type: functional; settings: read-out: GI
MOLT-4 = assay: Growth inhibition of human MOLT4 cells at 10 uM incubated for 48 hrs by sulforhodamine B assay relative to control; assay type: functional; settings: MOLT-4, 48 h, read-out: GI
NCI/ADR-RES = assay: Growth inhibition of human NCI/ADR-RES cells at 10 uM incubated for 48 hrs by sulforhodamine B assay relative to control; assay type: functional; settings: read-out: GI
OVCAR-5 = assay: Growth inhibition of human OVCAR5 cells at 10 uM incubated for 48 hrs by sulforhodamine B assay relative to control; assay type: functional; settings: OVCAR-5, 48 h, read-out: GI
OVCAR-4 = assay: Growth inhibition of human OVCAR4 cells at 10 uM incubated for 48 hrs by sulforhodamine B assay relative to control; assay type: functional; settings: OVCAR-4, 48 h, read-out: GI
MCF7 [6] = assay: Growth inhibition of human MCF7 cells at 10 uM incubated for 48 hrs by sulforhodamine B assay relative to control; assay type: functional; settings: MCF7, 48 h, read-out: GI
Hs-578T = assay: Growth inhibition of human Hs578T cells at 10 uM incubated for 48 hrs by sulforhodamine B assay relative to control; assay type: functional; settings: read-out: GI
T47D [7] = assay: Cytotoxicity against human T47D cells expressing wild type BRAF measured after 48 hrs by sulforhodamine B assay; assay type: functional, cell-based

Serine/threonine-protein kinase B-raf, sequence (P15056 whole entry): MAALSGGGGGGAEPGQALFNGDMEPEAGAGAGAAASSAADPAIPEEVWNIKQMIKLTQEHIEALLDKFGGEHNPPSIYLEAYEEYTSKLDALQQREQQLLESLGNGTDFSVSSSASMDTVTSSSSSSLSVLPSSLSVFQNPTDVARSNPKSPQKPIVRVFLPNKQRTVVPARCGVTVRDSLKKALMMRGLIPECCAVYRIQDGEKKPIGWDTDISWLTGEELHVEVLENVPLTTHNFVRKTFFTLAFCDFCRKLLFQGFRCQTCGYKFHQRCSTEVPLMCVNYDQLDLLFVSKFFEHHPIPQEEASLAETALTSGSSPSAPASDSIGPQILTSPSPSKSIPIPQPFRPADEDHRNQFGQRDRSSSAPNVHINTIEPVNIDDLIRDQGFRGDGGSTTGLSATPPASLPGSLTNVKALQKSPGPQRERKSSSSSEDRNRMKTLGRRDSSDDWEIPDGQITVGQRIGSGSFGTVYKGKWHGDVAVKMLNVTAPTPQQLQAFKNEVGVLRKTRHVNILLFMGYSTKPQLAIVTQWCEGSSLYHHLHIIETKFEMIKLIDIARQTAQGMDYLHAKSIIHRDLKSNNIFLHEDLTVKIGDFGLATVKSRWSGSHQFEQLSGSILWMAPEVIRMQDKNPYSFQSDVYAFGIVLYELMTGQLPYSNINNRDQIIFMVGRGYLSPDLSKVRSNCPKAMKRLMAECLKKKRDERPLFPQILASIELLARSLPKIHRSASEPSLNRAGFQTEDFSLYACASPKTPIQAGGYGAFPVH

Compound	inhibition of growth at 10 µM (A498) [%]	inhibition of growth at 10 µM (SN12C) [%]	inhibition of growth at 10 µM (NCI-H23) [%]	inhibition of growth at 10 µM (T47D [2]) [%]	inhibition of growth at 10 µM (IGROV-1) [%]	inhibition of growth at 10 µM (ACHN) [%]	IC50 (MCF7 [3]) [µM]	inhibition of growth at 10 µM (HOP-62) [%]	inhibition of growth at 10 µM (Malme-3M) [%]	inhibition of growth at 10 µM (SK-OV-3) [%]	inhibition of growth at 10 µM (UACC-62) [%]	inhibition of growth at 10 µM (UO-31) [%]	inhibition of growth at 10 µM (K562) [%]	inhibition of growth at 10 µM (SF-539) [%]	inhibition of growth at 10 µM (CAKI-1) [%]	inhibition of growth at 10 µM (PC-3) [%]	inhibition of growth at 10 µM (CCRF-CEM) [%]	inhibition of growth at 10 µM (NCI-H226) [%]	IC50 [4] [µM]	inhibition of growth at 10 µM (MDA-MB-231) [%]	also measured
CC(=O)c1ccc(Nc2ccnc(SCC(=O)c3ccc(-c4ccccc4)cc3)n2)cc1	55	11	10	29	14	26	66.1	13	14	11	20	27	10	13	16	19	22	11	0.28	22	IC50 [1]: 1.05 µM; inhibition of growth at 10 µM (DU-145): 16%; inhibition of growth at 10 µM (SW-620): 26%; inhibition of growth at 10 µM (HT-29): 16%; inhibition of growth at 10 µM (COLO 205): 11%; inhibition of growth at 10 µM (NCI-H522): 22%; inhibition of growth at 10 µM (HCT-116): 42%; inhibition of growth at 10 µM (MDA-MB-468): 13%; inhibition of growth at 10 µM (HCT-15): 13%; inhibition of growth at 10 µM (HOP-92): 21%; inhibition of growth at 10 µM (A549): 20%; inhibition of growth at 10 µM (KM12): 24%; inhibition of growth at 10 µM (RPMI-8226): 26%; inhibition of growth at 10 µM (SR): 41%
CC(=O)c1cccc(Nc2ccnc(SCC(=O)c3ccc(-c4ccccc4)cc3)n2)c1	40	13	18	49	20	12	24.4	19	17	22	24	40	16	11	23	25	28	22	0.74	41	inhibition at 10 µM (MCF7 [5]): 36%; inhibition of growth at 10 µM (EKVX): 15%; inhibition of growth at 10 µM (MOLT-4): 29%; inhibition of growth at 10 µM (NCI/ADR-RES): 14%; inhibition of growth at 10 µM (OVCAR-5): 12%; inhibition of growth at 10 µM (NCI-H522): 38%; inhibition of growth at 10 µM (HCT-116): 14%; inhibition of growth at 10 µM (OVCAR-4): 12%; inhibition of growth at 10 µM (MDA-MB-468): 14%; inhibition of growth at 10 µM (HCT-15): 15%; inhibition of growth at 10 µM (HOP-92): 17%; inhibition of growth at 10 µM (A549): 14%; inhibition of growth at 10 µM (MCF7 [6]): 12%; inhibition of growth at 10 µM (Hs-578T): 14%; inhibition of growth at 10 µM (RPMI-8226): 34%; IC50 (T47D [7]): 12.1 µM

From ChEMBL document CHEMBL4396916, “Novel potent substituted 4-amino-2-thiopyrimidines as dual VEGFR-2 and BRAF kinase inhibitors” (Eur J Med Chem, 2019)
